Molecular target: T1, BTK (Homo sapiens, UniProt Q06187)
T1 construct: purified from insect cells as a full-length construct containing a N-terminal 6×-His tag; His6 (N); made in house; host or cells: insect cells (baculovirus, Sf21)
Experiment: Btk in vitro inhibitory activity / inhibition of a panel of kinases (TR-FRET, mobility shift or radiometric filter binding)
Format: biochemical
Details: kinase assay by one of methods A, B or C
Description: Btk kinase activity is determined using a time-resolved fluorescence resonance energy transfer (TR-FRET) methodology. Measurements are performed in a reaction volume of 50 μL using 96-well assay plates. Kinase enzyme, inhibitor, ATP (at the Km for the kinase), and 1 μM peptide substrate (Biotin-AVLESEEELYSSARQ-NH2) are incubated in a reaction buffer composed of 20 mM Tris, 50 mM NaCl, MgCl2 (5-25 mM depending on the kinase), MnCl2 (0-10 mM), 1 mM DTT, 0.1 mM EDTA, 0.01% bovine serum albumin, 0.005% Tween-20, and 10% DMSO at pH 7.4 for one hour. The reaction is quenched by the addition of 1.2 equivalents of EDTA (relative to divalent cation) in 25 μL of 1× Lance buffer (Perkin-Elmer). Streptavidin-APC (Perkin-Elmer) and Eu-labeled p-Tyr100 antibody (Perkin-Elmer) in 1× Lance buffer are added in a 25 μL volume to give final concentrations of 100 nM and 2.5 nM, respectively, and the mixture is allowed to incubate for one hour. The TR-FRET signal is measured on a multimode plate reader with an excitation wavelength (λEx) of 330 nm and detection wavelengths (λEm) of 615 and 665 nm. Activity is determined by the ratio of the fluorescence at 665 nm to that at 615 nm. For each compound, enzyme activity is measured at various concentrations of compound. Negative control reactions are performed in the absence of inhibitor in replicates of six, and two no-enzyme controls are used to determine baseline fluorescence levels. Inhibition constants, Ki(app), ware obtained using the program BatchKi (Kuzmic et al. (2000), Anal. Biochem. 286:45-50). IC50s are obtained according to the equation: IC50={Ki(app)/(1+[ATP]/Km^ATP)}+[E]total/2;
For all kinases, [ATP]=Km^ATP, [Btk]total=0.5 nM and [Lck]total=6 nM.
Kinase activity is measured in vitro using electrophoretic mobility shift assay. The kinase reactions are assembled in a total volume of 25 μL in 384 well plates. The reactions comprise: BTK enzyme (1 nM, N-terminal His6-tagged, recombinant, full-length, human BTK purified from baculovirus Sf21 insect cell system), inhibitor, ATP ([…] the apparent Km for the kinase), fluorescently labeled peptide substrate (1 μM, FAM-GEEPLYWSFPAKKK-NH2) in a reaction buffer composed of 100 mM HEPES, pH7.5, 5 mM MgCl2 1 mM DTT, 0.1% bovine serum albumin, 0.01% Triton X-100, and 1% DMSO. The reaction is incubated for one hour and is quenched by the addition of 45 μL of termination buffer (100 mM HEPES, pH7.5, 0.01% Triton X-100, 30 mM EDTA). The terminated reactions are analyzed using 12 channel LabChip® 3000 microfluidic detection instrument (Caliper Life Sciences). The enzymatic phosphorylation of the peptide results in a change in net charge, enabling electrophoretic separation of product from substrate peptide. As substrate and product peptides are separated, two peaks of fluorescence are observed. Change in the relative fluorescence intensity of the substrate and product peaks is the parameter measured, reflecting enzyme activity. In the presence of an inhibitor, the ratio between product and substrate is altered: the signal of the product decreases, while the signal of the substrate increases.
Activity in each sample is determined as the product to sum ratio (PSR):P/(S+P), where P is the peak height of the product peptide and S is the peak height of the substrate peptide. For each compound, enzyme activity is measured at various concentrations (12 concentrations of compound spaced by 3× dilution intervals). Negative control samples (0%-inhibition in the absence of inhibitor) and positive control samples (100%-inhibition, in the presence of 20 mM EDTA) are assembled in replicates of four and are used to calculate %-inhibition values for each inhibitor at each concentration. Percent inhibition (Pinh) is determined using following equation: […]

T1 sequence (Q06187 whole entry): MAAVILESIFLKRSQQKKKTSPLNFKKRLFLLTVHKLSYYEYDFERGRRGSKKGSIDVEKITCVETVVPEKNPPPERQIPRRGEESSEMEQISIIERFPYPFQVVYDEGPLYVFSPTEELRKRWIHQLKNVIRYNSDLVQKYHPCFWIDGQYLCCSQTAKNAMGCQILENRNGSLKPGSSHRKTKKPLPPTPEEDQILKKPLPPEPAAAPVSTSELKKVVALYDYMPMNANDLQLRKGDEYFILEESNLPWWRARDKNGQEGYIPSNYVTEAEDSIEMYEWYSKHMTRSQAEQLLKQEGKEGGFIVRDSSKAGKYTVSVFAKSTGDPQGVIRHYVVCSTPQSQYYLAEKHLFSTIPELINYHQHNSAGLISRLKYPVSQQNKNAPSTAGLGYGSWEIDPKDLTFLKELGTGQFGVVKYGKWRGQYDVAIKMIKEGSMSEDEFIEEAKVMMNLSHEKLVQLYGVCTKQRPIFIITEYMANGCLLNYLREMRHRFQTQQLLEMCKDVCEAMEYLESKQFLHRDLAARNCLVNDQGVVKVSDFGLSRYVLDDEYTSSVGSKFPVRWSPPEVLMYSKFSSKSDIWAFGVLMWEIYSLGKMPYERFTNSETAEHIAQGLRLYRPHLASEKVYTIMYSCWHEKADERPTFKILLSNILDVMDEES

Row | Structure (SMILES) | IC50 [µM]
1 | CN(C/C=C/C(=O)N1CC[C@@H](n2c(C(=O)O)c(-c3ccc(Oc4ccccc4)cc3)c3c(N)ncnc32)C1)C1CC1 [Compound 128, (R,E)-4-amino-7-(1-(4-(cyclopropyl(methyl)amino)but-2-enoyl)pyrrolidin-3-yl)-5-(4-phenoxyphenyl)-7H-pyrrolo[2,3-d]pyrimidine-6-carboxylic acid] | < 0.1
2 | COCCN(C)C/C=C/C(=O)N1CC[C@@H](n2c(C#N)c(-c3ccc(Oc4ccccc4)cc3)c3c(N)ncnc32)C1 [Compound 104, (R,E)-4-amino-7-(1-(4-((2-methoxyethyl)(methyl)amino)but-2-enoyl)pyrrolidin-3-yl)-5-(4-phenoxyphenyl)-7H-pyrrolo[2,3-d]pyrimidine-6-carbonitrile] | < 0.1
3 | COc1c(-c2ccc(Oc3ccccc3)cc2)c2c(N)ncnc2n1[C@@H]1CCN(C(=O)/C=C/CN(C)C2CC2)C1 [Compound 89, (R,E)-1-(3-(4-amino-6-methoxy-5-(4-phenoxyphenyl)-7H-pyrrolo[2,3-d]pyrimidin-7-yl)pyrrolidin-1-yl)-4-(cyclopropyl(methyl)amino)but-2-en-1-one] | < 0.1
4 | CN(C/C=C/C(=O)N1CC[C@@H](n2c(N)c(-c3ccc(Oc4ccccc4)cc3)c3c(N)ncnc32)C1)C1CC1 [Compound 162, (R,E)-4-(cyclopropyl(methyl)amino)-1-(3-(4,6-diamino-5-(4-phenoxyphenyl)-7H-pyrrolo[2,3-d]pyrimidin-7-yl)pyrrolidin-1-yl)but-2-en-1-one] | < 0.1
5 | CN(C)C/C=C/C(=O)N1CC[C@@H](n2c(C3CC3)c(-c3ccc(Oc4ccccc4)cc3)c3c(N)ncnc32)C1 [Compound 100, (R,E)-1-(3-(4-amino-6-cyclopropyl-5-(4-phenoxyphenyl)-7H-pyrrolo[2,3-d]pyrimidin-7-yl)pyrrolidin-1-yl)-4-(dimethylamino)but-2-en-1-one] | < 0.1
6 | CN(C/C=C/C(=O)N1CC[C@@H](n2c(Cl)c(-c3ccc(Oc4cccc(F)c4)cc3)c3c(N)ncnc32)C1)C1CC1 [Compound 60, (R,E)-1-(3-(4-amino-6-chloro-5-(4-(3-fluorophenoxy)phenyl)-7H-pyrrolo[2,3-d]pyrimidin-7-yl)pyrrolidin-1-yl)-4-(cyclopropyl(methyl)amino)but-2-en-1-one] | < 0.1
7 | COc1c(-c2ccc(Oc3cccc(F)c3)cc2)c2c(N)ncnc2n1[C@@H]1CCN(C(=O)/C=C/CN(C)C2CC2)C1 [Compound 92, (R,E)-1-(3-(4-amino-5-(4-(3-fluorophenoxyl)phenyl)-6-methoxy-7H-pyrrolo[2,3-d]pyrimidin-7-yl)pyrrolidin-1-yl)-4-(cyclopropyl(methyl)amino)but-2-en-1-one] | < 0.1
8 | CN(C/C=C/C(=O)N1CC[C@@H](n2c(Cl)c(-c3ccc(Oc4ccccc4)cc3)c3c(N)ncnc32)C1)[C@H]1CCOC1 [Compound 56, (E)-1-((R)-3-(4-amino-6-chloro-5-(4-phenoxyphenyl)-7H-pyrrolo[2,3-d]pyrimidin-7-yl)pyrrolidin-1-yl)-4-(methyl((S)-tetrahydrofuran-3-yl)amino)but-2-en-1-one] | < 0.1
9 | Cc1c(-c2ccc(Oc3ccccc3)cc2)c2c(N)ncnc2n1C1CCN(C(=O)/C=C/CN(C)C2CC2)CC1 [Compound 67, (E)-1-(4-(4-amino-6-methyl-5-(4-phenoxyphenyl)-7H-pyrrolo[2,3-d]pyrimidin-7-yl)piperidin-1-yl)-4-(cyclopropyl(methyl)amino)but-2-en-1-one] | < 0.1
10 | COc1c(-c2ccc(Oc3ccccc3)cc2)c2c(N)ncnc2n1[C@@H]1CCN(C(=O)/C=C/CN(C)C)C1 [Compound 88, (R,E)-1-(3-(4-amino-6-methoxy-5-(4-phenoxyphenyl)-7H-pyrrolo[2,3-d]pyrimidin-7-yl)pyrrolidin-1-yl)-4-(dimethylamino)but-2-en-1-one] | < 0.1
11 | CN(C/C=C/C(=O)N1CC[C@@H](n2c(-c3ncco3)c(-c3ccc(Oc4ccccc4)cc3)c3c(N)ncnc32)C1)C1CC1 [Compound 124, (R,E)-1-(3-(4-amino-6-(oxazol-2-yl)-5-(4-phenoxyphenyl)-7H-pyrrolo[2,3-d]pyrimidin-7-yl)pyrrolidin-1-yl)-4-(cyclopropyl(methyl)amino)but-2-en-1-one] | < 0.1
12 | CN(C/C=C/C(=O)N1CC[C@@H](n2c(C3CC3)c(-c3ccc(Oc4ccccc4)cc3)c3c(N)ncnc32)C1)C1CC1 [Compound 94, (R,E)-1-(3-(4-amino-6-cyclopropyl-5-(4-phenoxyphenyl)-7H-pyrrolo[2,3-d]pyrimidin-7-yl)pyrrolidin-1-yl)-4-(cyclopropyl(methyl)amino)but-2-en-1-one] | < 0.1
13 | CN(C/C=C/C(=O)N1CC[C@@H](n2c(C#N)c(-c3ccc(Oc4cccc(F)c4)cc3)c3c(N)ncnc32)C1)C1CC1 [Compound 109, (R,E)-4-amino-7-(1-(4-(cyclopropyl(methyl)amino)but-2-enoyl)pyrrolidin-3-yl)-5-(4-(3-fluorophenoxyl)phenyl)-7H-pyrrolo[2,3-d]pyrimidine-6-carbonitrile] | < 0.1
14 | Cc1c(-c2ccc(OCc3cnn[nH]3)cc2)c2c(N)ncnc2n1[C@@H]1CCN(C(=O)/C=C/CN(C)C2CC2)C1 [Compound 86, (R,E)-1-(3-(5-(4-((1H-1,2,3-triazol-5-yl)methoxy)phenyl)-4-amino-6-methyl-7H-pyrrolo[2,3-d]pyrimidin-7-yl)pyrrolidin-1-yl)-4-(cyclopropyl(methyl)amino)but-2-en-1-one] | < 0.1
15 | CN(C/C=C/C(=O)N1CC[C@@H](n2c(C3CC3)c(-c3ccc(Oc4ccccc4)cc3)c3c(N)ncnc32)C1)[C@@H]1CCOC1 [Compound 97, (E)-1-((R)-3-(4-amino-6-cyclopropyl-5-(4-phenoxyphenyl)-7H-pyrrolo[2,3-d]pyrimidin-7-yl)pyrrolidin-1-yl)-4-(methyl((R)-tetrahydrofuran-3-yl)amino)but-2-en-1-one] | < 0.1
16 | CN(C/C=C/C(=O)N1CC[C@@H](n2c(Cl)c(-c3ccc(Oc4ccccc4)cc3)c3c(N)ncnc32)C1)[C@@H]1CCOC1 [Compound 57, (E)-1-((R)-3-(4-amino-6-chloro-5-(4-phenoxyphenyl)-7H-pyrrolo[2,3-d]pyrimidin-7-yl)pyrrolidin-1-yl)-4-(methyl((R)-tetrahydrofuran-3-yl)amino)but-2-en-1-one] | < 0.1
17 | CN(C(=O)/C=C/CN(C)C1CC1)c1ccc(-n2c(Cl)c(-c3ccc(Cl)cc3)c3c(N)ncnc32)cc1 [Compound 31, (E)-N-(4-(4-amino-6-chloro-5-(4-chlorophenyl)-7H-pyrrolo[2,3-d]pyrimidin-7-yl)phenyl)-4-(cyclopropyl(methyl)amino)-N-methylbut-2-enamide] | < 0.1
18 | Cc1c(-c2ccc(Oc3cccc(F)c3)cc2)c2c(N)ncnc2n1[C@@H]1CCN(C(=O)/C=C/CN(C)C2CC2)C1 [Compound 53, (R,E)-1-(3-(4-amino-5-(4-(3-fluorophenoxyl)phenyl)-6-methyl-7H-pyrrolo[2,3-d]pyrimidin-7-yl)pyrrolidin-1-yl)-4-(cyclopropyl(methyl)amino)but-2-en-1-one] | < 0.1
19 | CN(C/C=C/C(=O)N1CC[C@@H](n2c(C3CC3)c(-c3ccc(Oc4ccccc4)cc3)c3c(N)ncnc32)C1)[C@H]1CCOC1 [Compound 95, (E)-1-((R)-3-(4-amino-6-cyclopropyl-5-(4-phenoxyphenyl)-7H-pyrrolo[2,3-d]pyrimidin-7-yl)pyrrolidin-1-yl)-4-(methyl((S)-tetrahydrofuran-3-yl)amino)but-2-en-1-one] | < 0.1

Source: US9540385B2, “Pyrrolopyrimidine compounds as kinase inhibitors” (Pharmacyclics LLC, priority 2012, dated 2017)
